Biological target: T1, human ID2 protein (Homo sapiens, UniProt Q02363)
T1 sequence (Q02363 1-134): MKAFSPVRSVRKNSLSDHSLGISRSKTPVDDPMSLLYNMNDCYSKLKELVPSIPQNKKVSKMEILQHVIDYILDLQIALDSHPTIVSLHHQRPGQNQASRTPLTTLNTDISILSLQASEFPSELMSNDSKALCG
Assay: SPR
Assay type: binding

Kd: 129 nM
SMILES: O=C(CC1(O)C(=O)N(Cc2cccc(Cl)c2)c2ccccc21)c1ccccn1 (stereo not shown) [AK-778-XXMU]
